Reference: patent US20060068012A1, “Process for preparing poly (vinyl alcohol) drug delivery devices with humidity control” (Bausch & Lomb Incorporated, priority 2004, published 2006)

Test: thermal stability of the medicament at poly(vinyl alcohol) curing temperature
Format: physicochemical
Settings: heating during curing of poly(vinyl alcohol)
Experimental: Optionally, the temperature proximate the first drug delivery device and the temperature proximate the second drug delivery device is a minimum of about 120° C. and a maximum of about 210° C. In an embodiment, the temperature proximate the first drug delivery device and the temperature proximate the second drug delivery device is a minimum of about 125° C., about 130° C., about 135° C. or about 140° C. and/or a maximum of about 210° C., about 200° C., about 180° C., about 170° C., about 150° C. or about 140° C. The desired temperature for curing the poly(vinyl alcohol) is dependent upon several factors. If a temperature is selected below about 120° C., the poly(vinyl alcohol) will not cure effectively. If the temperature is above about 210° C., decomposition of the poly(vinyl alcohol) will occur. If the poly(vinyl alcohol) is cured in the presence of the medicament, the stability of the medicament must be considered. For example, flucinolone acetonide begins to decompose above a temperature of about 165° C. Thus, it is desired that a temperature for curing poly(vinyl alcohol) in the presence of flucinolone acetonide be in the range of about 120° C. to about 150° C. and preferably about 135° C.

In the case of `CC1(C)O[C@@H]2C[C@H]3[C@@H]4C[C@H](F)C5=CC(=O)C=C[C@]5(C)[C@@]4(F)[C@@H](O)C[C@]3(C)[C@]2(C(=O)CO)O1` [flucinolone acetonide], the “temperature above which the medicament begins to decompose” value was over 165 °C.
